Legend:
HCV replicon cells = assay: HCV replicon FRET / luciferase assay (96-well plates); assay type: cell-based; settings: Hepatitis C virus, Table 1b; HCV replicon; read-out: EC50
Procedure, shortened: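 Replicon cells + titrated cpds, 37 °C CO2. Alamar blue for cytotoxicity, PBS rinse, then lysis reagent w/ 20 μM FRET peptide (EDANS/DABCYL), 150 mM NaCl; kinetic read ex340/em490, 20 cycles. Alt: Dual-Glo luciferase. EC50 = 50% drop in FRET/luciferase signal after background subtraction.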

[1] = biological target: T1, HCV NS5B RdRp genotype 1b (Hepatitis C virus genotype 1b, UniProt Q9WMX2); assay: Standard HCV NS5B RdRp enzyme assay; assay type: biochemical; settings: Table 1b; HCV NS5B RdRp genotype 1b; read-out: IC50
T1 construct: The protein was expressed with an 18 amino acid C-terminal truncation to enhance the solubility; made in house; host or cells: E. coli BL21(DE3), pET21a vector
Procedure, shortened: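 C-terminally truncated (18 aa) genotype 1b NS5B from E. coli, 28 nM, with 6 nM polyA template, 180 nM biotinylated oligo-dT12 primer and 3H-UTP (0.29 μM total UTP). Hepes pH 7.5 buffer with 2% DMSO; 60 min at 30° C. EDTA stop, SPA read-out; IC50 from seven concentrations by four-parameter fit.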

T1 sequence (Q9WMX2 2420-2992): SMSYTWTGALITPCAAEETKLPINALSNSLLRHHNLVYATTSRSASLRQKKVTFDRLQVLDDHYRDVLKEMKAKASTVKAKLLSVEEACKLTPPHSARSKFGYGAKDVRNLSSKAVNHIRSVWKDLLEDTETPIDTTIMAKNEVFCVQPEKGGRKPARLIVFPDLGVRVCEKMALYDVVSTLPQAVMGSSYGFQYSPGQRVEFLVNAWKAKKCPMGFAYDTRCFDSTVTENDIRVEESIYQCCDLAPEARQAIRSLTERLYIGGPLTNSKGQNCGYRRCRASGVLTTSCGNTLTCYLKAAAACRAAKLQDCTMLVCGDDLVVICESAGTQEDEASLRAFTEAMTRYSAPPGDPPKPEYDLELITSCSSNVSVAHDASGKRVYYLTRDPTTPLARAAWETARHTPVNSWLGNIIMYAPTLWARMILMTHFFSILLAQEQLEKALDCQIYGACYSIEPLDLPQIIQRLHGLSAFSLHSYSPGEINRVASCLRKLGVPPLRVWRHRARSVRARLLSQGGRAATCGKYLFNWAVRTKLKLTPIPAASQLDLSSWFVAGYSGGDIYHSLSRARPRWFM

| SMILES | EC50 (HCV replicon cells) | IC50 [1] |
| --- | --- | --- |
| CNC(=O)c1c(-c2ccc(F)cc2)oc2cc(N)c(-c3cc(C(=O)NCC(C)C)ccc3OC)cc12 | < 250 nM | < 250 nM |
| CNC(=O)c1c(-c2ccc(F)cc2)oc2cc([N+](=O)[O-])c(-c3cc(C(=O)NC4(c5ccccc5)CC4)ccc3F)cc12 | < 250 nM | < 250 nM |
| CNC(=O)c1c(-c2ccc(F)cc2)oc2ccc(-c3ccc(-c4cccc(CO)c4)c(C(=O)NCC(C)C)c3)cc12 | < 250 nM | < 250 nM |
| CNC(=O)c1c(-c2ccc(F)cc2)oc2ccc(-c3ccc(-c4cnn(C)c4)c(C(=O)NCC(C)C)c3)cc12 | < 250 nM | < 250 nM |
| CNC(=O)c1c(-c2ccc(F)cc2)oc2ccc(-c3cc(C(=O)NCC(C)C)ccc3OCCO)cc12 | < 250 nM | < 250 nM |
| CNC(=O)c1c(-c2ccc(F)cc2)oc2ccc(-c3cc(C(=O)NCC(C)C)ccc3OCCc3c(C)n[nH]c3C)cc12 | < 250 nM | < 250 nM |
| CNC(=O)c1c(-c2ccc(F)cc2)oc2ccc(-c3cccc(C(=O)NC(C)(C)c4cccnc4)c3)cc12 | < 250 nM | < 250 nM |
| CNC(=O)c1c(-c2ccc(F)cc2)oc2cc(N(CCO)S(C)(=O)=O)c(-c3cc(C(=O)NC4(c5ccccc5)CC4)ccc3F)cc12 | < 250 nM | < 250 nM |
| CNC(=O)c1c(-c2ccc(F)cc2)oc2ccc(-c3cc(C(=O)NCC(C)C)ccc3OCCc3c[nH]c4ccccc34)cc12 | 1000 to 10000 nM | 1000 to 10000 nM |
| CNC(=O)c1c(-c2ccc(F)cc2)oc2ccc(-c3cc(C(=O)NCC(C)C)ccc3OCCCN3CCN(C)CC3)cc12 | < 250 nM | < 250 nM |
| CCC(O)COc1ccc(C(=O)NCC(C)C)cc1-c1ccc2oc(-c3ccc(F)cc3)c(C(=O)NC)c2c1 (stereo not drawn) | 250 to 1000 nM | 250 to 1000 nM |
| CNC(=O)c1c(-c2ccc(F)cc2)oc2ccc(-c3cc(C(=O)NCC(C)C)ccc3OCC(C)O)cc12 (stereo not drawn) | < 250 nM | < 250 nM |
| CNC(=O)c1c(-c2ccc(F)cc2)oc2ccc(-c3cc(C(=O)NCC(C)C)ccc3OCCC3CCCCN3)cc12 (stereo not drawn) | < 250 nM | < 250 nM |
| CNC(=O)c1c(-c2ccc(F)cc2)oc2ccc(-c3cc(C(=O)NCC(C)C)ccc3OCc3ccncc3)cc12 | < 250 nM | < 250 nM |
| CNC(=O)c1c(-c2ccc(F)cc2)oc2ccc(-c3cc(C(=O)NCC(C)C)ccc3OCC3CCCN3C(=O)OC(C)(C)C)cc12 (stereo not drawn) | 1000 to 10000 nM | > 10000 nM |
| CNC(=O)c1c(-c2ccc(F)cc2)oc2ccc(-c3cc(C(=O)NCC(C)C)ccc3OCC3CCCN3)cc12 (stereo not drawn) | 250 to 1000 nM | < 250 nM |
| CNC(=O)c1c(-c2ccc(F)cc2)oc2cc(N(CCO)S(C)(=O)=O)c(-c3cccc(C(=O)NC(C)(C)C(=O)Nc4cc(C)no4)c3)cc12 | < 250 nM | < 250 nM |
| CNC(=O)c1c(-c2ccc(F)cc2)oc2ccc(-c3cc(OC)cc(C(=O)NCC(C)C)c3)cc12 | 250 to 1000 nM | 250 to 1000 nM |
| CNC(=O)c1c(-c2ccc(F)cc2)oc2ccc(-c3cc(C(=O)NCC(C)C)ccc3OCCN)cc12 | < 250 nM | < 250 nM |
| CNC(=O)c1c(-c2ccc(F)cc2)oc2ccc(-c3cc(C(=O)NCC(C)C)cc(-c4ccccc4)c3)cc12 | > 10000 nM | > 10000 nM |
| CNC(=O)c1c(-c2ccc(F)cc2)oc2ccc(-c3cc(C(=O)NC(C)(C)C)ccc3C)cc12 | < 250 nM | < 250 nM |
| CNC(=O)c1c(-c2ccc(F)cc2)oc2cc([N+](=O)[O-])c(-c3cc(C(=O)NC4(c5ccccc5)CC4)ccc3OC)cc12 | 250 to 1000 nM | < 250 nM |
| CNC(=O)c1c(-c2ccc(F)cc2)oc2ccc(-c3cc(C(=O)NC4(C#N)CC4)ccc3C)cc12 | < 250 nM | < 250 nM |
| CNC(=O)c1c(-c2ccc(F)cc2)oc2cc([N+](=O)[O-])c(-c3ccc(OC)c(C(=O)NC4(c5ccccc5)CC4)c3)cc12 | < 250 nM | < 250 nM |
| CNC(=O)c1c(-c2ccc(F)cc2)oc2ccc(-c3cc(N)ccc3C)cc12 | 1000 to 10000 nM | 1000 to 10000 nM |
| CNC(=O)c1c(-c2ccc(F)cc2)oc2cc(N)c(-c3cc(C(=O)NC4(c5ccccc5)CC4)ccc3OC)cc12 | < 250 nM | < 250 nM |

| SMILES | EC50 (HCV replicon cells) | IC50 [1] |
| --- | --- | --- |
| CNC(=O)c1c(-c2ccc(F)cc2)oc2ccc(-c3cc(NC(=O)C4(c5ccccc5)CC4)ccc3C)cc12 | 250 to 1000 nM | 1000 to 10000 nM |
| CNC(=O)c1c(-c2ccc(F)cc2)oc2ccc(-c3cc(C(=O)NC4(C(=O)OC)CC4)ccc3C)cc12 | < 250 nM | < 250 nM |
| CNC(=O)c1c(-c2ccc(F)cc2)oc2ccc(-c3cc(C(=O)NC4(c5nnc(C)[nH]5)CC4)ccc3C)cc12 | < 250 nM | < 250 nM |
| CNC(=O)c1c(-c2ccc(F)cc2)oc2cc(N)c(-c3cc(C(=O)NC4(c5ccccc5)CC4)ccc3C)cc12 | < 250 nM | < 250 nM |
| CNC(=O)c1c(-c2ccc(F)cc2)oc2ccc(-c3cccc(C(=O)NC(C)(C)c4nc(C)no4)c3)cc12 | < 250 nM | < 250 nM |
| CNC(=O)c1c(-c2ccc(F)cc2)oc2ccc(-c3cc(C(=O)NC4(C(=O)O)CC4)ccc3C)cc12 | 1000 to 10000 nM | < 250 nM |
| CNC(=O)c1c(-c2ccc(F)cc2)oc2ccc(-c3cc(C(=O)NC4(CO)CC4)ccc3C)cc12 | 1000 to 10000 nM | 1000 to 10000 nM |
| CNC(=O)c1c(-c2ccc(F)cc2)oc2ccc(-c3cc(C(=O)NC(C)(C)CN4CCOCC4)ccc3C)cc12 | < 250 nM | < 250 nM |
| CNC(=O)c1c(-c2ccc(F)cc2)oc2ccc(-c3cc(C(=O)NCC(C)C)ccc3OC(F)F)cc12 | < 250 nM | < 250 nM |
| CNC(=O)c1c(-c2ccc(F)cc2)oc2ccc(-c3cc(C(=O)NC(C)(C)C4CC4)ccc3C)cc12 | < 250 nM | < 250 nM |
| CNC(=O)c1c(-c2ccc(F)cc2)oc2cc(NS(C)(=O)=O)c(-c3cc(C(=O)NC4(c5ccccc5)CC4)ccc3C)cc12 | < 250 nM | < 250 nM |
| CNC(=O)c1c(-c2ccc(F)cc2)oc2ccc(-c3cc(C(=O)NC4(c5nnn[nH]5)CC4)ccc3C)cc12 | 1000 to 10000 nM | < 250 nM |
| CNC(=O)c1c(-c2ccc(F)cc2)oc2ccc(-c3cc(C(=O)NC4(c5ccccc5)CC4)ccc3O)cc12 | < 250 nM | < 250 nM |
| CNC(=O)c1c(-c2ccc(F)cc2)oc2ccc(-c3ccc(O)c(C(=O)NCC(C)C)c3)cc12 | > 10000 nM | 1000 to 10000 nM |
| CNC(=O)c1c(-c2ccc(F)cc2)oc2cc(N(CCO)S(C)(=O)=O)c(-c3cccc(C(=O)NC(C)(C)c4nc(C)no4)c3)cc12 | < 250 nM | < 250 nM |
| CNC(=O)c1c(-c2ccc(F)cc2)oc2cc(N(CCO)S(C)(=O)=O)c(-c3cc(C(=O)NC4(c5ccccc5)CC4)ccc3C)cc12 | < 250 nM | < 250 nM |
| CNC(=O)c1c(-c2ccc(F)cc2)oc2ccc(-c3cc(C(=O)NCC(C)C)ccc3OCC3CCNC3)cc12 (stereo not drawn) | < 250 nM | < 250 nM |
| CNC(=O)c1c(-c2ccc(F)cc2)oc2ccc(-c3cc(C(=O)NCC(C)C)ccc3OCC3CCCNC3)cc12 (stereo not drawn) | < 250 nM | < 250 nM |
| CNC(=O)c1c(-c2ccc(F)cc2)oc2ccc(-c3cc(C(=O)NC4(c5ccccn5)CC4)c(OC)cc3Cl)cc12 | < 250 nM | < 250 nM |
| CNC(=O)c1c(-c2ccc(F)cc2)oc2ccc(-c3cc(C(=O)NCC(C)C)ccc3OCCC(N)=O)cc12 | > 10000 nM | > 10000 nM |
| CNC(=O)c1c(-c2ccc(F)cc2)oc2ccc(-c3cc(C(=O)NCC(C)C)ccc3OCCCN)cc12 | < 250 nM | < 250 nM |
| CNC(=O)c1c(-c2ccc(F)cc2)oc2ccc(-c3cc(C(=O)NC4(c5ccc(F)cc5)CC4)ccc3C)cc12 | < 250 nM | < 250 nM |
| CNC(=O)c1c(-c2ccc(F)cc2)oc2ccc(-c3cc(C(=O)NCC(C)C)ccc3OC3CCC(N)C3)cc12 (stereo not drawn) | < 250 nM | < 250 nM |
| CNC(=O)c1ccc(-c2ccc(-c3ccc4oc(-c5ccc(F)cc5)c(C(=O)NC)c4c3)cc2C(=O)NCC(C)C)cn1 | > 10000 nM | > 10000 nM |
| CNC(=O)c1c(-c2ccc(F)cc2)oc2ccc(-c3cc(C(=O)NCC(C)C)ccc3OCCNC(N)=O)cc12 | < 250 nM | < 250 nM |

Source: patent US8309558B2, “Compounds for the treatment of hepatitis C” (Bristol-Myers Squibb Company, priority 2008, dated 2012)
